Measured values published in patent US8940894B2, “Aminothiazole compounds as kinase inhibitors and methods of using the same” (AB Science, priority 2007, dated 2015).

Tests used:
[1] = behaviour of the polymorph form at relative humidity (storage); assay type: physicochemical; settings: at 80% relative humidity
[2] = thermodynamic stability of the polymorph form versus temperature; assay type: physicochemical; settings: at temperatures below 200° C.

Structure (SMILES): CS(=O)(=O)O.Cc1ccc(NC(=O)c2ccc(CN3CCN(C)CC3)cc2)cc1Nc1nc(-c2cccnc2)cs1 [(VI), 4-(4-Methyl-piperazin-1-ylmethyl)-N-[4-methyl-3-(4-pyridin-3-yl-thiazol-2-ylamino)-phenyl]-benzamide methanesulfonate]
- state of the polymorph form under humidity [1]: remains, dry
- thermodynamic stability of the polymorph form [2]: thermodynamically stable
